Results: patent US20160159816A1, “SUBSTITUTED THIENOPYRIMIDINES AND PHARMACEUTICAL USE THEREOF” (BAYER PHARMA AKTIENGESELLSCHAFT, priority 2013, published 2016)
pIC50: −log10 of the molar value.

The compounds below were run against T1, human full-length MKNK1 (Homo sapiens, UniProt Q9BUB5, T385D) (assay: MKNK1 kinase high ATP assay (TR-FRET)). Settings: high ATP (2 mM), after preincubation with MKNK1; compounds of the present invention (Table 1a).
T1 construct: GST (N); purchased Carna Biosciences 02-145; host or cells: insect cells, baculovirus expression system
T1 sequence (Q9BUB5 1-424 isoform Q9BUB5-2 T344D): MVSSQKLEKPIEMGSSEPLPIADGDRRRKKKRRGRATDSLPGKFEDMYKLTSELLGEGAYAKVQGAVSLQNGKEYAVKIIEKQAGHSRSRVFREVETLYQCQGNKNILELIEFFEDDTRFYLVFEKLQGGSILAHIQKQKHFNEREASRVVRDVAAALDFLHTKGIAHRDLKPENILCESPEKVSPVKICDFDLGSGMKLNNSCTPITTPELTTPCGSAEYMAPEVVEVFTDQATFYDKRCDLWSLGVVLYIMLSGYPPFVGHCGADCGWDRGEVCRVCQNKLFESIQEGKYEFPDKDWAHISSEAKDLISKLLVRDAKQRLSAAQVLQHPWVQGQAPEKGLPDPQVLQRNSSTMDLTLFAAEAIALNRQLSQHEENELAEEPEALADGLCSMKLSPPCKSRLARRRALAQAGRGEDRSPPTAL
Assay type: biochemical
Experimental: MKNK1-inhibitory activity at high ATP of compounds of the present invention after their preincubation with MKNK1 was quantified employing the TR-FRET-based MKNK1 high ATP assay as described in the following paragraphs.
A recombinant fusion protein of Glutathione-S-Transferase (GST, N-terminally) and human full-length MKNK1 (amino acids 1-424 and T344D of accession number BAA 19885.1), expressed in insect cells using baculovirus expression system and purified via glutathione sepharose affinity chromatography, was purchased from Carna Biosciences (product no 02-145) and used as enzyme. As substrate for the kinase reaction the biotinylated peptide biotin-Ahx-IKKRKLTRRKSLKG (C-terminus in amide form) was used, which can be purchased e.g. from the company Biosyntan (Berlin-Buch, Germany).
For the assay 50 nL of a 100 fold concentrated solution of the test compound in DMSO was pipetted into a black low volume 384 well microtiter plate (Greiner Bio-One, Frickenhausen, Germany), 2 μL of a solution of MKNK1 in aqueous assay buffer [50 mM HEPES pH 7.5, 5 mM MgCl2, 1.0 mM dithiothreitol, 0.005% (v/v) Nonidet-P40 (Sigma)] was added and the mixture was incubated for 15 min at 22° C. to allow pre-binding of the test compounds to the enzyme before the start of the kinase reaction. Then the kinase reaction was started by the addition of 3 μL of a solution of adenosine-tri-phosphate (ATP, 3.3 mM=>final conc. in the 5 μL assay volume is 2 mM) and substrate (0.1 μM=>final conc. in the 5 μL assay volume is 0.06 μM) in assay buffer and the resulting mixture was incubated for a reaction time of 30 min at 22° C. The concentration of MKNK1 was adjusted depending of the activity of the enzyme lot and was chosen appropriate to have the assay in the linear range, typical concentrations were in the range of 0.003 μg/mL. The reaction was stopped by the addition of 5 μL of a solution of TR-FRET detection reagents (5 nM streptavidine-XL665 [Cisbio Bioassays, Codolet, France] and 1 nM anti-ribosomal protein […] (pSer236)-antibody from Invitrogen [#44921G] and 1 nM LANCE EU-W1024 labeled ProteinG [Perkin-Elmer, product no. AD0071]) in an aqueous EDTA-solution (100 mM EDTA, 0.1% (w/v) bovine serum albumin in 50 mM HEPES pH 7.5).
The resulting mixture was incubated for 1 h at 22° C. to allow the formation of complex between the phosphorylated biotinylated peptide and the detection reagents. Subsequently the amount of phosphorylated substrate was evaluated by measurement of the resonance energy transfer from the Eu-chelate to the streptavidine-XL. Therefore, the fluorescence emissions at 620 nm and 665 nm after excitation at 350 nm were measured in a TR-FRET reader, e.g. a Rubystar (BMG Labtechnologies, Offenburg, Germany) or a Viewlux (Perkin-Elmer). The ratio of the emissions at 665 nm and at […] was taken as the measure for the amount of phosphorylated substrate. The data were normalised (enzyme reaction without inhibitor=0% inhibition, all other assay components but no enzyme=100% inhibition). […] Table 1a lists MKNK1 high ATP IC50 values of some compounds of the present invention.

Question: `CC(O)C(=O)NCC1CCc2c(sc3ncnc(Nc4ccc5[nH]ncc5c4)c23)C1` (racemic) [Example 12, (2RS)-2-Hydroxy-N-{[(7RS)-4-(1H-indazol-5-ylamino)-5,6,7,8-tetrahydro[1]benzothieno[2,3-d]pyrimidin-7-yl]methyl}propanamide] was tested. Which pIC50 did it give?
Answer: Its pIC50 is 7.71.

Question: With `CC[C@@]1(C(=O)N(C)CCOC)CCc2c(sc3ncnc(Nc4cc5cn[nH]c5cc4OC)c23)C1` [Example 64, (7R) 7-Ethyl-N-(2-methoxyethyl)-4-[(6-methoxy-1H-indazol-5-yl)amino]-N-methyl-5,6,7,8-tetrahydro[1]benzothieno[2,3-d]pyrimidine-7-carboxamide] as the compound, how does the pIC50 read?
Answer: Its pIC50 is 7.58.

Question: How did the pIC50 turn out when `CC[C@]1(C(=O)N(C)C)CCc2c(sc3ncnc(Nc4cc5cn[nH]c5cc4OC)c23)C1` [Example 51, (7S) 7-Ethyl-4-[(6-methoxy-1H-indazol-5-yl)amino]-N,N-dimethyl-5,6,7,8-tetrahydro[1]benzothieno[2,3-d]pyrimidine-7-carboxamide] was run?
Answer: Its pIC50 is 8.77.

Question: `COc1cc2[nH]ncc2cc1Nc1ncnc2sc3c(c12)CC[C@@](C)(C(=O)N(C)OC)C3` [Example 59, (7R) N-Methoxy-4-[(6-methoxy-1H-indazol-5-yl)amino]-N,7-dimethyl-5,6,7,8-tetrahydro[1]benzothieno[2,3-d]pyrimidine-7-carboxamide] was tested. Which pIC50 did it give?
Answer: The pIC50 was 7.89.

Question: With `OCc1cn(C[C@@H]2CCc3c(sc4ncnc(Nc5ccc6[nH]ncc6c5)c34)C2)nn1` (single isomer, unassigned) [Example 34, (1-{[(7R or 7S)-4-(1H-Indazol-5-ylamino)-5,6,7,8-tetrahydro[1]benzothieno[2,3-d]pyrimidin-7-yl]methyl}-1H-1,2,3-triazol-4-yl)methanol] as the compound, how does the pIC50 read?
Answer: Its pIC50 is 7.69.

Question: `CN(C)C1CCc2c(sc3ncnc(Nc4ccc5[nH]ncc5c4)c23)C1` (racemic) [Example 35, (RS)—N^4-(1H-Indazol-5-yl)-N^7,N^7-dimethyl-5,6,7,8-tetrahydro[1]benzothieno[2,3-d]pyrimidine-4,7-diamine] was tested. Which pIC50 did it give?
Answer: Its pIC50 is 6.66.

Question: With `CC[C@]1(C(=O)N2CCC2)CCc2c(sc3ncnc(Nc4cc5cn[nH]c5cc4OC)c23)C1` [Example 69, (7S) Azetidin-1-yl{(7S)-7-ethyl-4-[(6-methoxy-1H-indazol-5-yl)amino]-5,6,7,8-tetrahydro[1]benzothieno[2,3-d]pyrimidin-7-yl}methanone] as the compound, how does the pIC50 read?
Answer: Its pIC50 is 8.47.

Question: How did the pIC50 turn out when `COCC1(OC)CCc2c(sc3ncnc(Nc4cc5cn[nH]c5cc4Cl)c23)C1` (single isomer, unassigned) [Example 46, (7R) or (7S) N-(6-Chloro-1H-indazol-5-yl)-7-methoxy-7-(methoxymethyl)-5,6,7,8-tetrahydro[1]benzothieno[2,3-d]pyrimidin-4-amine] was run?
Answer: The pIC50 was 7.05.

Question: `COc1cc2[nH]ncc2cc1Nc1ncnc2sc3c(c12)CC[C@@](C)(C(=O)N1CCC1)C3` [Example 61, (7R) Azetidin-1-yl{(7S)-4-[(6-methoxy-1H-indazol-5-yl)amino]-7-methyl-5,6,7,8-tetrahydro[1]benzothieno[2,3-d]pyrimidin-7-yl}methanone] was tested. Which pIC50 did it give?
Answer: Its pIC50 is 7.93.

Question: `COCCN(C)C(=O)[C@@]1(C)CCc2c(sc3ncnc(Nc4cc5cn[nH]c5cc4OC)c23)C1` [Example 56, (7S) N-(2-Methoxyethyl)-4-[(6-methoxy-1H-indazol-5-yl)amino]-N,7-dimethyl-5,6,7,8-tetrahydro[1]benzothieno[2,3-d]pyrimidine-7-carboxamide] was tested. Which pIC50 did it give?
Answer: The pIC50 was 8.35.

Question: With `COc1cc2[nH]ncc2cc1Nc1ncnc2sc3c(c12)CCC(CN=[N+]=[N-])C3` (racemic) [Example 18, (RS)-7-(Azidomethyl)-N-(6-methoxy-1H-indazol-5-yl)-5,6,7,8-tetrahydro[1]benzothieno[2,3-d]pyrimidin-4-amine] as the compound, how does the pIC50 read?
Answer: The pIC50 was 7.62.

Question: With `COCC1(OC)CCc2c(sc3ncnc(Nc4cc5cn[nH]c5cc4C)c23)C1` (single isomer, unassigned) [Example 40, (7R) or (7S) 7-Methoxy-7-(methoxymethyl)-N-(6-methyl-1H-indazol-5-yl)-5,6,7,8-tetrahydro[1]benzothieno[2,3-d]pyrimidin-4-amine] as the compound, how does the pIC50 read?
Answer: The pIC50 was 6.31.

Question: `COc1cc2[nH]ncc2cc1Nc1ncnc2sc3c(c12)CC[C@@](C)(C(=O)N1CCOC[C@H]1C)C3` [Example 55, (7R) {4-[(6-Methoxy-1H-indazol-5-yl)amino]-7-methyl-5,6,7,8-tetrahydro[1]benzothieno[2,3-d]pyrimidin-7-yl}[(3R)-3-methylmorpholin-4-yl]methanone] was tested. Which pIC50 did it give?
Answer: Its pIC50 is 7.48.

Question: `CC(C)(O)C(=O)NCC1CCc2c(sc3ncnc(Nc4ccc5[nH]ncc5c4)c23)C1` (racemic) [Example 13, (RS)-2-Hydroxy-N-{[4-(1H-indazol-5-ylamino)-5,6,7,8-tetrahydro[1]benzothieno[2,3-d]pyrimidin-7-yl]methyl}-2-methylpropanamide] was tested. Which pIC50 did it give?
Answer: The pIC50 was 7.91.

Question: `COCC1(OC)CCc2c(sc3ncnc(Nc4cc5cn[nH]c5cc4F)c23)C1` (single isomer, unassigned) [Example 44, (7R) or (7S) N-(6-Fluoro-1H-indazol-5-yl)-7-methoxy-7-(methoxymethyl)-5,6,7,8-tetrahydro[1]benzothieno[2,3-d]pyrimidin-4-amine] was tested. Which pIC50 did it give?
Answer: Its pIC50 is 7.13.

Question: How did the pIC50 turn out when `N[C@@H](CCO)C(=O)NCC1CCc2c(sc3ncnc(Nc4ccc5[nH]ncc5c4)c23)C1` (mixture of isomers) [Example 16, N-{[(7RS)-4-(1H-Indazol-5-ylamino)-5,6,7,8-tetrahydro[1]benzothieno[2,3-d]pyrimidin-7-yl]methyl}-L-homoserinamide] was run?
Answer: Its pIC50 is 7.68.

Question: With `Cc1cc2[nH]ncc2cc1Nc1ncnc2sc3c(c12)CCC(C)C3` (racemic) [Example 25, (RS)-7-Methyl-N-(6-methyl-1H-indazol-5-yl)-5,6,7,8-tetrahydro[1]benzothieno[2,3-d]pyrimidin-4-amine] as the compound, how does the pIC50 read?
Answer: The pIC50 was 6.91.

Question: `CC[C@@]1(C(=O)N2C[C@@H](C)O[C@@H](C)C2)CCc2c(sc3ncnc(Nc4cc5cn[nH]c5cc4OC)c23)C1` [Example 70, (7R) [(2R,6S)-2,6-Dimethylmorpholin-4-yl]{7-ethyl-4-[(6-methoxy-1H-indazol-5-yl)amino]-5,6,7,8-tetrahydro[1]benzothieno[2,3-d]pyrimidin-7-yl}methanone] was tested. Which pIC50 did it give?
Answer: Its pIC50 is 7.29.

Question: How did the pIC50 turn out when `CC(C)C(=O)NCC1CCc2c(sc3ncnc(Nc4ccc5[nH]ncc5c4)c23)C1` (racemic) [Example 10, (RS)—N-{[4-(1H-Indazol-5-ylamino)-5,6,7,8-tetrahydro[1]benzothieno[2,3-d]pyrimidin-7-yl]methyl}-2-methylpropanamide] was run?
Answer: Its pIC50 is 7.96.

Question: `COCC1(OC)CCc2c(sc3ncnc(Nc4ccc5[nH]ncc5c4)c23)C1` (single isomer, unassigned) [Example 39, (7S) or (7R) N-(1H-Indazol-5-yl)-7-methoxy-7-(methoxymethyl)-5,6,7,8-tetrahydro[1]benzothieno[2,3-d]pyrimidin-4-amine] was tested. Which pIC50 did it give?
Answer: The pIC50 was 7.16.

Question: With `CC1CCc2c(sc3ncnc(Nc4cc5cn[nH]c5cc4F)c23)C1` (racemic) [Example 28, (RS)—N-(6-Fluoro-1H-indazol-5-yl)-7-methyl-5,6,7,8-tetrahydro[1]benzothieno[2,3-d]pyrimidin-4-amine] as the compound, how does the pIC50 read?
Answer: The pIC50 was 7.17.

Question: How did the pIC50 turn out when `COc1cc2[nH]ncc2cc1Nc1ncnc2sc3c(c12)CCC(C)C3` (racemic) [Example 27, (RS)—N-(6-Methoxy-1H-indazol-5-yl)-7-methyl-5,6,7,8-tetrahydro[1]benzothieno[2,3-d]pyrimidin-4-amine] was run?
Answer: Its pIC50 is 7.18.

Question: With `CC[C@]1(C(=O)N2CCOC[C@H]2C)CCc2c(sc3ncnc(Nc4cc5cn[nH]c5cc4OC)c23)C1` [Example 75, {(7S)-7-Ethyl-4-[(6-methoxy-1H-indazol-5-yl)amino]-5,6,7,8-tetrahydro[1]benzothieno[2,3-d]pyrimidin-7-yl}[(3R)-3-methylmorpholin-4-yl]methanone] as the compound, how does the pIC50 read?
Answer: The pIC50 was 7.69.

Question: With `OCC1CCc2c(sc3ncnc(Nc4ccc5[nH]ncc5c4)c23)C1` (racemic) [Example 1, (RS)-[4-(1H-Indazol-5-ylamino)-5,6,7,8-tetrahydro[1]benzothieno[2,3-d]pyrimidin-7-yl]methanol] as the compound, how does the pIC50 read?
Answer: Its pIC50 is 7.50.
